{
  "source": "paper PMC9369311",
  "about": "“Examination of Intracellular GPCR-Mediated Signaling with High Temporal Resolution” (International Journal of Molecular Sciences, 2022)",
  "target": "T1, DmOctβ1 receptor (Drosophila melanogaster, UniProt Q9VCZ3)",
  "T1 construct": "expressed in transfected cells; host or cells: flpTM cells (HEK293 flpIn, Invitrogen #750-07, carrying the CNGA2 variant)",
  "T1 sequence (Q9VCZ3 1-508)": "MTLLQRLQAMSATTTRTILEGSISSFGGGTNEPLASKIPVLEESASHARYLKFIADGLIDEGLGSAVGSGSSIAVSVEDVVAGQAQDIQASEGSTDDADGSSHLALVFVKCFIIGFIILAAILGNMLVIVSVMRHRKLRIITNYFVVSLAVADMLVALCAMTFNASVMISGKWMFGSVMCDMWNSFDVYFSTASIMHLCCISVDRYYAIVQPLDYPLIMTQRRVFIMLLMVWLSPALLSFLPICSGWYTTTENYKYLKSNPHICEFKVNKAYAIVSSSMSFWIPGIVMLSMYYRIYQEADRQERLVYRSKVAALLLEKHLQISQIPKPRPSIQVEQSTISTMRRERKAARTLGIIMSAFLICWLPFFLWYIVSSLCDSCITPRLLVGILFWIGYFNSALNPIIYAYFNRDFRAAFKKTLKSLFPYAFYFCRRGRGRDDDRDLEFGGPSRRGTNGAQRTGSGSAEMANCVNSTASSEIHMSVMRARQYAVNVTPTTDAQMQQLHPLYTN",
  "assay": "Ca2+ fluorimetry in plate reader (96 MWP), flpTM-DmOctβ1 cells (cAMP-mediated Ca2+ influx via CNGA2)",
  "assay_type": "cell-based",
  "method": "Both the DmOctα1B receptor- and DmOctβ1 receptor-expressing (=flpTM-DmOctβ1) cell lines were initially investigated via Ca^2+ fluorimetric measurements in a plate reader. The cells were seeded in 96 well plates and loaded with Fluo-4, enabling the detection of changes in [Ca^2+]i. The Fluo-4 was excited at 485 nm and the fluorescence emission was recorded at 510 nm. To overcome the cAMP degradation by cell-endogenous phosphodiesterases, the DmOctβ1-expressing cells were treated with 100 µM iso-butylmethylxanthine (IBMX). Prior to the ligand application, the basal fluorescence (F0) was recorded and the concentration–response curves were generated by plotting the changes in fluorescence ((Fmax − F0)/F0 = ΔF/F0) against the ligand concentrations. For a better comparison, the fluorescence intensities were normalized. The maximal change in fluorescence for each of the stimulation series was defined as 100%. The EC50 values were determined from a nonlinear regression plot (four parameters) using GraphPad Prism v5.04 for analysis and display.\nIn order to omit loading with the fluorescent dye, both the DmOctα1B-expressing cells and flpTM-DmOctβ1 cells were stably transfected with a construct encoding the cytosolic version of GCaMP3.0. As in the previous experiment with Fluo-4, the GCaMP3.0-expressing cell lines were seeded in 96 well plates and incubated with the same series of increasing octopamine concentrations. The GCaMP3.0 was excited at 485 nm and the fluorescence emission was recorded at 510 nm. The basal fluorescence (F0) was recorded before adding the octopamine concentration series. The fluorescence intensities were normalized to the maximal change in fluorescence, defined as 100%. The concentration–response curves were generated with GraphPad Prism v5.04. In Figure 1, the concentration–response curves obtained with Fluo-4 and GCaMP3.0 are depicted for both of the receptors. […]",
  "note": "Values joined by “and” are separate entries in the source; they are usually repeats but may differ in a detail not shown here. Equal values may be shown once. Read-outs that look alike come from different tables or passages of the source.",
  "data": [
    {"smiles": "NCC(O)c1ccc(O)cc1", "note": "(stereo not drawn) [octopamine]", "values": [
      {"measurement": "EC50", "setting": "flpTM-DmOctβ1-GCaMP3.0 cells, 100 µM IBMX, given as logEC50 (negative), read-out: logEC50 ± SD (converted)", "value": 0.437, "unit": "nM"},
      {"measurement": "EC50", "setting": "flpTM-DmOctβ1-GCaMP3.0 cells, 100 µM IBMX, read-out: EC50", "value": 0.4, "unit": "nM"},
      {"measurement": "EC50", "setting": "flpTM-DmOctβ1 cells loaded with Fluo-4, 100 µM IBMX, read-out: EC50", "value": "~1.2 nM and 1.2 nM"}
    ]}
  ]
}
